Measured values as given in US20050100891A1, “Gene expression profile for KSHV infection and methods for treating same” (priority 2000, published 2005).
Entries after “also recorded” stand apart in the source; their conditions may differ.

Key:
ORF 65 (lytic gene) = assay: RT-PCR of late (lytic) gene ORF 65 in PMA-induced KSHV-infected DMVEC; format: cell-based; conditions: for late gene (ORF 65) expression: compound 1 hour before PMA, 48 hours, concentration not given
Description: (§1) KSHV genes ORF 64 and K12 (kaposin) were used as reverse transcriptase PCR (RT-PCR) templates as described previously^(43). ORF 65 sequences were amplified with primers 5-[…] (SEQ ID NO: 5) and 5′-[…] (SEQ ID NO: 6). Cellular genes (HPRT, GAPDH, or -actin) were amplified from each sample as a control for cDNA synthesis. PCR products were visualized following electrophoresis on agarose-ethidium bromide gels.
(§2) Cells were treated with inhibitory compounds or peptides for one hour and lytic replication was induced by PMA treatment for 48 hours. Ganciclovir was used as control compound for inhibition of KSHV-replication and late gene expression^(10). After 48 hours, cells were harvested and expression of the latent gene K12 as well as the late gene ORF 65 was analyzed by RT-PCR. For control, expression of cellular genes α-actin or HPRT was monitored. […] However, both Ht31 and Haloperidol inhibited late gene expression, but not latent gene expression. Since both inhibitors potentially interfere with PKC signaling, we examined whether Ht31 or Haloperidol would inhibit the PMA-mediated induction of immediate early genes. […] In addition, the peptide Ht-31 inhibits the association between A kinase anchoring proteins (AKAPs) and PKA (21, 64). […] Therefore we conclude that the signal transduction pathways regulated by the type I sigma receptor and AKAPs are required for lytic progression of KSHV.
There is no specific inhibitor of Gravin identified, however the Ht-31 peptide derived from the PKA R-II binding domain of the human thyroid AKAP inhibits the AKAP/PKA interactions in vivo and in vitro ^(21, 64). A stearated version of this peptide is membrane permeable and can block the AKAP/PKA interaction in tissue culture. A requirement for PKA signaling can be inferred from the up-regulation of Gravin, and to further investigate the requirement for the AKAP/PKA interaction for KSHV late gene expression, infected and uninfected cells were treated with stearated Ht-31 at two concentrations (FIG. 7B). […] A stearated control peptide that is unable to interact with PKA, Ht-31P, had no effect on late gene expression (FIG. 7B, lanes 4-5). […] It is not possible to conclude whether the inhibitory effect of Ht-3 1 occurs through Gravin or any other AKAP, since Ht-31 inhibits a wide range of AKAP/PKA interactions.
(§3) The type I Sigma receptor is antagonized by the antipsychotic drug Haloperidol^(66). To investigate the requirement of Sigma receptor function for late gene expression, cells were treated with 5 μM Haloperidol for 1 hour prior to PMA addition. […] The inhibition of late gene expression was more complete with Haloperidol than with Ganciclovir (FIG. 7D, lanes 5-6). In contrast, the purine […] phosphorylase inhibitor 8-aminoguanosine (8-AMG) had no effect on viral gene expression (FIG. 7D, lane 4).

K12 (latent gene) = assay: RT-PCR of latent gene K12 in PMA-induced KSHV-infected DMVEC; format: cell-based
Description: as §1, §2, §3

Epstein-Barr Virus (EBV) = conditions: cited from earlier work
immediate early gene K3 = assay: PMA-mediated induction of immediate early gene K3; format: cell-based, KSHV
KSHV-infected DMVEC [1] = assay: XTT-based proliferation assay, response to exogenous SCF; format: cell-based, human
Description: (§4) Proliferation of mock and KSHV-infected DMVEC, and the SCLC line HTB-172, was quantitated using an XTT-based assay. Cells were added to Primaria 96 well trays (Becton-Dickinson) at 1×104 or 5×10^4 cells/well. […] XTT (Roche, Molecular Biochemicals, Indianapolis, Ind.) was added 48 hours later according to the manufacturers instructions. Absorbance was read after 4 to 6 hours on a microplate reader. The HTB-172 line was obtained from the American Type Culture Collection (ATCC, Rockville, Md.).
Mock- and KSHV-infected DMVEC were cultured in growth factor depleted medium in the absence and presence of recombinant SCF and proliferation was measured using an XTT-based dye reduction assay^(112).

human Jurkat T cell line = assay: Proliferation of Jurkat T cell line in response to exogenous IL-2; format: cell-based
Uninfected DMVEC = tested on: Uninfected DMVEC
Description: (§5) To promote a transformed phenotype, KSHV-infected DMVEC were cultured post-confluency in 35 mm Primaria culture dishes. […] Cells were examined daily for evidence of phenotypic change using a phase-contrast microscope and results recorded photographically.
(§6) To directly test whether KSHV-induction of c-Kit is necessary for virus-induced transformation, the consequence of inhibiting c-Kit signaling in KSHV-transformed DMVEC was evaluated.

KSHV-infected DMVEC [2] = assay: Transformation assay (focus formation, disorganized growth) in post-confluent culture; format: cell-based, human
Description: as §5, §6
In this approach, a dominant negative c-Kit protein lacking the cytoplasmic ATP-binding and phosphotransferase domains necessary for c-Kit signaling (Ad/c-KitDN) was expressed in KSHV-infected cells using the adenovirus delivery system outlined above.

SCLC cell lines = conditions: via inhibition of c-Kit activity; cited from earlier work
mock-infected DMVEC = assay: XTT-based proliferation assay, response to exogenous SCF; format: cell-based, human
Description: as §4
To examine whether KSHV-induced up-regulation of c-Kit had functional consequences, we tested whether the mitogenic response of DMVEC to exogenous SCF was enhanced following KSHV infection. Mock- and KSHV-infected DMVEC were cultured in growth factor depleted medium in the absence and presence of recombinant SCF and proliferation was measured using an XTT-based dye reduction assay^(112). […] In mock-infected cultures, the increase over basal proliferation in the […] of recombinant SCF was never more than 40%, while proliferation of KSHV-infected DMVEC was increased by as much as 85%. During KS disease, an enhanced capacity of KSHV-infected endothelial cells to respond to SCF produced by adjacent endothelial cells, or by macrophages and mast cells infiltrating the KS lesion, would promote more rapid growth of virus infected cells.

[3] = 5 μM Haloperidol for 1 hour prior to PMA addition

For `Nc1nc2c(nc(N)n2[C@@H]2O[C@H](CO)[C@@H](O)[C@H]2O)c(=O)[nH]1` [8-aminoguanosine], the “viral gene expression (K12, ORF 65)” value (ORF 65 (lytic gene); 10 μM 8-aminoguanosine) was “no effect”.
With `Nc1nc(O)c2ncn(COC(CO)CO)c2n1` [Ganciclovir] the “latent gene (K12) expression” value (K12 (latent gene); compound 1 hour before PMA, 48 hours, concentration not given) was “did not interfere” and the “late gene (ORF 65) expression” value (ORF 65 (lytic gene)) was “inhibited”.
In the case of `O=C(CCCN1CCC(O)(c2ccc(Cl)cc2)CC1)c1ccc(F)cc1` [Haloperidol], the “expression of the latent K12 gene” value (K12 (latent gene); [3]) is given as “did not affect”, the “replication of Epstein-Barr Virus in tissue culture” value (Epstein-Barr Virus (EBV)) is given as “inhibit” and the “induction of the immediate early gene K3” value (immediate early gene K3) is given as “neither compound prevented induction”. For the same compound, the “ORF 65 expression” value (ORF 65 (lytic gene); [3]) was “significantly reduced”, the “completeness of inhibition of late gene expression compared with Ganciclovir” value (ORF 65 (lytic gene); 5 μM Haloperidol vs 25 μM Ganciclovir) was “more complete” and the “late gene (ORF 65) expression” value (ORF 65 (lytic gene)) was “inhibited”.
For `Cc1ccc(NC(=O)c2ccc(CN3CCN(C)CC3)cc2)cc1Nc1nccc(-c2cccnc2)n1` [STI 571], the “proliferative response of KSHV-infected DMVEC to exogenous SCF” value (KSHV-infected DMVEC [1]; 1 μM dose, SCF 50 ng/ml, XTT assay) was “completely inhibited”, the “effect on capacity to proliferate in response to exogenous IL-2” value (human Jurkat T cell line) was “no effect” and the “effect on cell morphology or viability” value (Uninfected DMVEC) was “no effect”. For the same compound, the “focus formation of KSHV-transformed DMVEC” value (KSHV-infected DMVEC [2]; STI 571 0.01-10 μM, 5 days, organized monolayer re-established) was “inhibited”, the “drug concentration at which the effect on the transformed phenotype was complete” value (KSHV-infected DMVEC [2]; dose-dependent) was 1 µM and the “non-specific cytotoxicity (trypan blue exclusion)” value (DMVEC) was “not due to non-specific cytotoxicity”. For the same compound, the “growth of SCLC cell lines in vitro” value (SCLC cell lines) was “inhibit”.
In the case of “Ht-31: peptide derived from the PKA R-II binding domain of human thyroid AKAP; inhibits AKAP/PKA interactions (WKNVLQGGESTKERFENSNIGTA)”, the “level of K12 RNA” value (K12 (latent gene); 25 μM) is reported as “without affecting”, the “induction of the immediate early gene K3” value (immediate early gene K3) is reported as “neither compound prevented induction” and the “ORF 65 expression” value (ORF 65 (lytic gene); 5 μM Ht-31, PMA induction) is reported as “efficiently repressed”. The “ORF 65 expression” value (ORF 65 (lytic gene); 25 μM, PMA induction) was “inhibited; also recorded: efficiently repressed” and the “late gene (ORF 65) expression” value (ORF 65 (lytic gene)) was “inhibited”.
In the case of “SCF: recombinant stem cell factor, ligand of c-Kit”, the “SCF concentration of maximal dose-dependent proliferation” value (mock-infected DMVEC; mock-infected DMVEC) is reported as 50 to 100 ng/mL, the “increase over basal proliferation in the absence of recombinant SCF” value (mock-infected DMVEC; mock-infected cultures, exogenous SCF 20-100 ng/ml) is reported as ≤ 40% and the “SCF concentration of maximal dose-dependent proliferation” value (KSHV-infected DMVEC [1]; KSHV-infected DMVEC) is reported as 50 to 100 ng/mL. For the same compound, the “increase over basal proliferation in the absence of recombinant SCF” value (KSHV-infected DMVEC [1]; KSHV-infected DMVEC, exogenous SCF 20-100 ng/ml) was ≤ 85%.
